This is an account of results in publication PMC4911353, “Pharmacologic Inhibition of Host Phosphodiesterase-4 Improves Isoniazid-Mediated Clearance of Mycobacterium tuberculosis” (Frontiers in Immunology, 2016).

For one assay, the system named is Mtb-infected mouse lungs. Briefly: Genome-wide lung transcriptome (microarray, IPA network/GO analysis) of Mtb-infected mice. It counts as in vivo. To be noted: TNF-a regulon network.
The next assay relates to Pde4. Briefly: qPCR of host Pde4 gene expression in Mtb-infected mouse lungs. It counts as in vivo, mice. To be noted: 14 days of treatment (28 days postinfection). How it is done: Total lung RNA (200 ng) was reverse-transcribed using Sprint RT kit (Clontech, CA, USA); 10 ng of cDNA were used for quantitative real-time PCR (qPCR), with Brilliant II SYBR master mix (Agilent Technologies, CA, USA) and gene-specific primers in a Stratagene Mx3005P instrument (Agilent Technologies, CA, USA). ROX was included in each reaction as an internal control. The qPCR assay was performed using four mouse samples in duplicate per group; the data were analyzed using MxPro Software (Agilent Technologies, CA, USA). Transcript levels of Gapdh were used as a reference against the test genes. Fold change in gene expression was calculated using the formula 2^−ΔΔCt, where ΔCt is the difference in threshold cycle (Ct) between the target gene and Gapdh; and ΔΔCt is the […] between untreated and CC-11050-treated samples. Primers were designed based on nucleotide sequences obtained from PrimerBank.^3
A general note: Real-time PCR tracks product formation cycle by cycle.

For the compound `CCOc1cc([C@@H](CS(C)(=O)=O)N2Cc3cccc(NC(=O)C4CC4)c3C2=O)ccc1OC` [CC-11050, N-[2-[(1S)-1-(3-ethoxy-4-methoxyphenyl)-2-(methylsulfonyl)ethyl]-2,3-dihydro-3-oxo-1H-isoindol-4-yl]-(9Cl) cyclopropanecarboxamide], the Ins1 expression in the assay on Mtb-infected mouse lungs amounted to 0. Besides, the “Pde4Bv3 (Pde4B variant 3) expression in lungs versus Mtb-infected untreated” value in the assay with Pde4 is given as “No significant change”.
